Measured values: patent US20240165112A1, “THERAPY FOR THE TREATMENT OF CANCER” (Bristol-Myers Squibb Company, priority 2022, published 2024)

Assays:
[1] = Plasma concentration of Compound 1 at the 400 mg dose; assay type: in vivo; settings: 400 mg dose in human
[2] = test system: TNC, ACTA2, PAI-1 transcripts in lung cancer-associated fibroblasts (CAF); assay: TGF-β-induced gene transcription, fibroblast activation markers (RT-PCR); assay type: cell-based, human
Procedure: FIGS. 9A-9C illustrates the effect of Compound 1 on Transcriptional Markers of Fibroblast Activation in Lung Cancer Associated Fibroblasts Treated with TGF-β. […] Lung cancer-associated fibroblasts (CAF, black bars) were treated with 10 ng/mL TGF-β after 1-hour pre-incubation with a range of Compound 1 concentrations, and cells were lysed 24 hours later. Indicated gene transcripts were assessed by RT-PCR relative to GAPDH. Data were normalized to expression after TGF-β-treatment in the presence of only DMSO. Data are presented as mean of 3 biological replicates, and error bars indicate standard deviation. The graphs are representative of at least 2 independent experiments. *P<0.05; ** P<0.01, ***P<0.001; ****P<0.0001 by student's t-test. Abbreviations: ACTA2, smooth muscle actin; CAF, cancer associated fibroblasts; DMSO, dimethyl sulfoxide; GAPDH, glyceraldehyde-3-phosphate dehydrogenase; NHLF, normal lung human fibroblasts; PAI-1, plasminogen activator inhibitor 1; RNA, ribonucleic acid; RT-PCR, reverse transcription polymerase chain reaction; […], transforming growth factor beta; TNC, tenascin C.
Cells were seeded (75,000 NHLF and lung CAF cells) into 12 well plates with RPMI+10% FBS and allowed to adhere overnight at 37° C., 5% CO2. After one day of serum starvation, cells were pre-treated for 1 hour with DMSO or Compound 1 at 30 μM, 10 μM, 3 μM, 1 μM, or 0.3 μM and then stimulated with 10 ng/mL TGF-β. The 24-hour Compound 1 treated samples were harvested for ribonucleic acid (RNA) extraction.
Cells were directly lysed in Qiagen™ Buffer RLT Plus with 1% 2-Mercaptoethanol added. Total RNA from tumor samples and cell lines was isolated using Qiagen™ AllPrep® DNA/RNA 96 Kit according to manufacturer's protocol. Isolated RNA was analyzed with NanoDrop™ ONE Spectrophotometer for concentration. The RNA integrity was also analyzed on Agilent TapeStation 4200.
Complimentary deoxyribonucleic acid (cDNA) was prepared by using Invitrogen™ SuperScript™ III First-Strand Synthesis SuperMix for qRT-PCR. Up to 1 μg of RNA was prepared according to manufacturer's protocol, using Applied Biosystems™ Veriti™ 96-well thermal cycler. The reverse transcription (RT) program used for cDNA synthesis: • 1. 25° C., 10 minutes • 2. 50° C., 30 minutes • 3. 85° C., 5 minutes • 4. Add E. Coli RNase H, 37° C., 20 minutes • 5. Hold at 4° C. Quantitative Reverse Transcription Polymerase Chain Reaction (qRT-PCR).
The cDNA was diluted 1:3 fold in nuclease-free water for quantitative polymerase chain reaction (qPCR) setup. Human and mouse TaqMan™ assays for targeted genes were ordered through Applied Biosystems™. TaqMan™ assay selection was based on manufacturer's recommendation. The qRT-PCR was set up using Applied Biosystems™ TaqMan™ Fast Advanced Master Mix according to manufacturer's protocol. The qRT-PCR was run on QuantStudio™ 12 Flex with fast run mode: • 1. 95° C., 20 seconds • 2. 95° C., 1 second • 3. 60° C., 20 seconds • 4. Repeat steps 2-3, 39 times
The qPCR data was analyzed, and all cycle threshold (Ct) values were normalized to glyceraldehyde-3-phosphate dehydrogenase (GAPDH) (ΔCt). Analysis was plotted and presented using GraphPad Prism (GraphPad, Version 8.4.1, San Diego, CA).
The levels of phospho-c-Jun in NHLF and non-small cell lung CAF in response to TGF-β in the presence of DMSO or varying concentrations of Compound 1 were summarized in FIG. 7. Cells were treated with DMSO or Compound 1 for 1 hour prior to treatment with 10 ng/mL TGF-β for an additional 2 hours. Phospho-c-Jun levels were determined by western blot analysis and were normalized to DMSO treated samples. […] The relative expression of fibroblast activation markers in NHLF and lung CAF in response to TGF-β in the presence of DMSO or varying concentrations of Compound 1 were summarized in FIGS. 8A-8C and FIGS. 9A-9C. Cells were treated with DMSO or Compound 1 for 2 hours prior to treatment with 10 ng/mL TGF-β. The RNA expression was assessed 24 hours after TGF-β treatment.

[3] = test system: phospho-c-Jun in lung cancer-associated fibroblasts (CAF); assay: TGF-β-induced c-Jun phosphorylation (capillary western); assay type: cell-based; settings: Homo sapiens, Fibroblast, 10 ng/mL TGF-β for 2 hours, western blot, read-out: EC50 on phospho-c-Jun levels
Procedure: (§1) Normal human lung fibroblasts (NHLF, black circle) or lung cancer-associated fibroblasts (CAF, black square) were treated with 10 ng/mL TGF-β after 1 hour pre-incubation with a range of Compound 1 concentrations, and cells were lysed 2 hours later. Phospho-c-Jun levels were evaluated by western blot. Abbreviations: CAF, cancer-associated fibroblasts; NHLF, normal lung human fibroblasts; TGF-β, transforming growth factor beta.
(§2) Normal human lung fibroblasts (NHLF) and lung cancer-associated fibroblasts (CAF) were maintained in their respective vendor recommended media. For the purposes of comparing the two cell lines, NHLF and lung CAF were both adapted to DMEM+10% fetal bovine serum (FBS) and to RPMI+10% FBS prior to use in the activation assay. Cells were seeded (150,000 NHLF and lung CAF cells) in 12 well plates and allowed to adhere overnight at 37° C., 5% CO2. The next day, cells were pre-treated for […] at 37° C. with DMSO or Compound 1 at 30 μM, 7.5 μM, 1.875 μM, 0.469 μM, 0.117 μM, 0.029 μM, and 0.007 μM. […]
(§3) The levels of phospho-c-Jun in NHLF and non-small cell lung CAF in response to TGF-β in the presence of DMSO or varying concentrations of Compound 1 were summarized in FIG. 7. […] Phospho-c-Jun levels were determined by western blot analysis and were normalized to DMSO treated samples.

[4] = test system: phospho-c-Jun in normal human lung fibroblasts (NHLF); assay: as above; assay type: cell-based; settings: Fibroblast, 10 ng/mL TGF-β for 2 hours, western blot, read-out: EC50 on phospho-c-Jun levels
Procedure: as §1, §2, §3

[5] = CAF stimulated with TGFβ, 10 μM Compound 1
[6] = CAF, 30 μM Compound 1, 10 ng/mL TGF-β, 24 hours

SMILES: C[C@@H]1CC[C@@H](Nc2nc(NC(C)(C)C)ncc2C(N)=O)C[C@H]1O [Compound 1, 2-(tert-butylamino)-4-((1R,3R,4R)-3-hydroxy-4-methylcyclohexylamino)-pyrimidine-5-carboxamide]
- plasma concentration at Cavg [1]: 4 µM
- Cmax ([1]; plasma): 14 µM
- PAI-1 reduced relative to DMSO [2, 5]: PAI-1, ACTA2, and TNC were reduced 71%,
- TNC reduced relative to DMSO [2, 5]: 77%
- TNC induction, reduction from peak activation relative to baseline ([2]; CAF, 0.3 μM Compound 1, 10 ng/mL TGF-β, 24 hours): 34%
- PAI-1 induction, reduction from peak activation relative to baseline ([2]; CAF, 1 μM Compound 1, 10 ng/mL TGF-β, 24 hours): 25%
- ACTA2 induction, reduction from peak activation relative to baseline ([2]; CAF, 10 μM Compound 1, 10 ng/mL TGF-β, 24 hours): 71%
- ACTA2 expression [2, 6]: lower than samples in the absence of TGF-β
- PAI-1 induction, reduction from peak activation relative to baseline [2, 6]: 98%
- TNC induction, reduction from peak activation relative to baseline [2, 6]: 97%
- EC50 [3]: 0.33 µM
- EC50 [4]: 0.35 µM
